Common to all, as to experiment: Bliss interaction score (quartile over a dose matrix) (fitness difference); higher = more antagonism (negative = synergy)
In one experiment the test system is S. aureus DSM 20231. Put shortly: (§1)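 Quartiles summarise the Bliss score over technical, biological and donor/recipient replicates, where the score is observed minus expected fitness under a product model. Expected fitness uses single-drug values inferred from combination data. Fitness is OD595 at entry into stationary phase over the plate's robust no-drug mean, capped at 1.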

The next experiment concerns S. pneumoniae D39V. Put shortly:
as §1

For another experiment, the system named is B. subtilis 168. Put shortly: as §1
The next experiment concerns S. aureus Newman. Put shortly: as §1

The text below walks through data of the supplement of paper PMC10627819.
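Further: first quartile when negative (synergy) and third quartile when positive (antagonism).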

In the case of `COc1c(N2C[C@@H]3CCCN[C@@H]3C2)c(F)cc2c(=O)c(C(=O)O)cn(C3CC3)c12` [Moxifloxacin] + Oc1cc(Cl)ccc1Oc1ccc(Cl)cc1Cl [Triclosan], the Bliss interaction score with S. aureus DSM 20231 was -0.0397; in the experiment on S. pneumoniae D39V it was 0.0747; with B. subtilis 168, 0.0151; with S. aureus Newman, -0.038.
The like results for `O=C1CN(/N=C/c2ccc([N+](=O)[O-])o2)C(=O)N1` [Nitrofurantoin] + C/C(=C\C(=O)OCCCCCCCCC(=O)O)C[C@@H]1OC[C@H](C[C@@H]2O[C@H]2[C@@H](C)[C@H](C)O)[C@@H](O)[C@H]1O [Pseudomonic acid] were, in that order, -0.0197, 0.0739, 0.127 and -0.0266.
Taken in the same sequence, the figures for `O=C1CN(/N=C/c2ccc([N+](=O)[O-])o2)C(=O)N1` [Nitrofurantoin] + CC1(C)S[C@@H]2[C@H](NC(=O)Cc3ccccc3)C(=O)N2[C@H]1C(=O)O [PenicillinG] were -0.0568, 0.13, -0.0696 and 0.0397.
Regarding `O=C1CN(/N=C/c2ccc([N+](=O)[O-])o2)C(=O)N1` [Nitrofurantoin] + CCCCCCCCCC(=O)N[C@@H]1[C@H]([C@@H]([C@H](O[C@H]1OC2=C3C=C4C=C2OC5=C(C=C(C=C5)[C@H]([C@H]6C(=O)N[C@@H](C7=C(C(=CC(=C7)O)OC8[C@H]([C@H]([C@@H]([C@H](O8)CO)O)O)O)C9=C(C=CC(=C9)[C@H](C(=O)N6)NC(=O)[C@@H]4NC(=O)[C@@H]1C2=CC(=CC(=C2)OC2=C(C=CC(=C2)[C@H](C(=O)N[C@H](CC2=CC(=C(O3)C=C2)Cl)C(=O)N1)N)O)O)O)C(=O)O)O[C@H]1[C@@H]([C@H]([C@@H]([C@H](O1)CO)O)O)NC(=O)C)Cl)CO)O)O [Teicoplanin], the Bliss interaction score in the experiment with S. aureus DSM 20231 (main component drawn) was 0.0402; in the experiment with S. pneumoniae D39V (main component drawn), -0.06; with B. subtilis 168 (main component drawn), -0.157; with S. aureus Newman (main component drawn), -0.0914.
Regarding `O=C1CN(/N=C/c2ccc([N+](=O)[O-])o2)C(=O)N1` [Nitrofurantoin] + CC[C@H]1OC(=O)[C@H](C)C(=O)[C@H](C)[C@@H](O[C@@H]2O[C@H](C)C[C@H](N(C)C)[C@H]2O)[C@](C)(OC)C[C@@H](C)C(=O)[C@H](C)[C@H]2N(CCCCn3cnc(-c4cccnc4)c3)C(=O)O[C@]12C [Telithromycin], the Bliss interaction score with S. aureus DSM 20231 is -0.0398; in the experiment with S. pneumoniae D39V, -0.293; with B. subtilis 168, -0.128; in the experiment with S. aureus Newman, -0.0641.
Take `O=C1CN(/N=C/c2ccc([N+](=O)[O-])o2)C(=O)N1` [Nitrofurantoin] + CN[C@H](CC(C)C)C(=O)N[C@H]1C(=O)N[C@@H](CC(N)=O)C(=O)N[C@H]2C(=O)N[C@H]3C(=O)N[C@H](C(=O)N[C@H](C(=O)O)c4cc(O)cc(O)c4-c4cc3ccc4O)[C@H](O[C@H]3C[C@](C)(N)[C@@H](O)[C@H](C)O3)c3ccc(c(Cl)c3)Oc3cc2cc(c3O[C@@H]2O[C@H](CO)[C@@H](O)[C@H](O)[C@H]2O[C@H]2C[C@](C)(NCc3ccc(-c4ccc(Cl)cc4)cc3)[C@@H](O)[C@H](C)O2)Oc2ccc(cc2Cl)[C@H]1O [Oritavancin]: the Bliss interaction score in the experiment with S. aureus DSM 20231 was -0.0379; with S. pneumoniae D39V, -0.0352; in the experiment on B. subtilis 168, 0.0189; in the experiment on S. aureus Newman, -0.118.
In the case of `O=C1CN(/N=C/c2ccc([N+](=O)[O-])o2)C(=O)N1` [Nitrofurantoin] + CO[C@@H]1[C@@H](OC(N)=O)[C@@H](O)[C@H](Oc2ccc3c(O)c(NC(=O)c4ccc(O)c(CC=C(C)C)c4)c(=O)oc3c2C)OC1(C)C [Novobiocin], the Bliss interaction score with S. aureus DSM 20231 came out at 0.0482; in the experiment on S. pneumoniae D39V, 0.0513; with B. subtilis 168, 0.0731; in the experiment with S. aureus Newman, 0.0827.
As to `O=C1CN(/N=C/c2ccc([N+](=O)[O-])o2)C(=O)N1` [Nitrofurantoin] + COc1cc(Cc2cnc(N)nc2N)cc(OC)c1OC [Trimethoprim], the Bliss interaction score with S. aureus DSM 20231 is -0.0418; with S. pneumoniae D39V, -0.553; in the experiment with B. subtilis 168 it was -0.181; in the experiment with S. aureus Newman, 0.0663.
For `O=C1CN(/N=C/c2ccc([N+](=O)[O-])o2)C(=O)N1` [Nitrofurantoin] + Oc1cc(Cl)ccc1Oc1ccc(Cl)cc1Cl [Triclosan], the Bliss interaction score with S. aureus DSM 20231 is -0.014; with S. pneumoniae D39V, 0.0809; in the experiment on B. subtilis 168, -0.039; with S. aureus Newman it was 0.0328.
Take `C/C(=C\C(=O)OCCCCCCCCC(=O)O)C[C@@H]1OC[C@H](C[C@@H]2O[C@H]2[C@@H](C)[C@H](C)O)[C@@H](O)[C@H]1O` [Pseudomonic acid] + CC[C@H]1OC(=O)[C@H](C)C(=O)[C@H](C)[C@@H](O[C@@H]2O[C@H](C)C[C@H](N(C)C)[C@H]2O)[C@](C)(OC)C[C@@H](C)C(=O)[C@H](C)[C@H]2N(CCCCn3cnc(-c4cccnc4)c3)C(=O)O[C@]12C [Telithromycin]: the Bliss interaction score is 0.0119 in the experiment on S. aureus DSM 20231, -0.0569 in the experiment on S. pneumoniae D39V, 0.0359 with B. subtilis 168 and -0.028 with S. aureus Newman.
Take `C/C(=C\C(=O)OCCCCCCCCC(=O)O)C[C@@H]1OC[C@H](C[C@@H]2O[C@H]2[C@@H](C)[C@H](C)O)[C@@H](O)[C@H]1O` [Pseudomonic acid] + COc1cc(Cc2cnc(N)nc2N)cc(OC)c1OC [Trimethoprim]: the Bliss interaction score in the experiment on S. aureus DSM 20231 is 0.0182; in the experiment with S. pneumoniae D39V, -0.143; in the experiment with B. subtilis 168, 0.0595; with S. aureus Newman, 0.0264.
Taken in the same sequence, the figures for `C/C(=C\C(=O)OCCCCCCCCC(=O)O)C[C@@H]1OC[C@H](C[C@@H]2O[C@H]2[C@@H](C)[C@H](C)O)[C@@H](O)[C@H]1O` [Pseudomonic acid] + Oc1cc(Cl)ccc1Oc1ccc(Cl)cc1Cl [Triclosan] were -0.0069, 0.0696, -0.0255 and -0.0174.
In the case of `CCCCCCCCCC(=O)N[C@H]1[C@H](Oc2c3cc4cc2Oc2ccc(cc2Cl)[C@@H](O[C@@H]2O[C@H](CO)[C@@H](O)[C@H](O)[C@H]2NC(C)=O)[C@@H]2NC(=O)[C@H](NC(=O)[C@@H]4NC(=O)[C@H]4NC(=O)[C@@H](Cc5ccc(c(Cl)c5)O3)NC(=O)[C@H](N)c3ccc(O)c(c3)Oc3cc(O)cc4c3)c3ccc(O)c(c3)-c3c(O[C@H]4O[C@H](CO)[C@@H](O)[C@H](O)[C@@H]4O)cc(O)cc3[C@@H](C(=O)O)NC2=O)O[C@H](CO)[C@@H](O)[C@@H]1O` [Teicoplanin] + CC[C@H]1OC(=O)[C@H](C)C(=O)[C@H](C)[C@@H](O[C@@H]2O[C@H](C)C[C@H](N(C)C)[C@H]2O)[C@](C)(OC)C[C@@H](C)C(=O)[C@H](C)[C@H]2N(CCCCn3cnc(-c4cccnc4)c3)C(=O)O[C@]12C [Telithromycin], the Bliss interaction score was determined as 0.0617 in the experiment on S. aureus DSM 20231 (main component drawn), 0.0575 in the experiment on S. pneumoniae D39V (main component drawn), 0.0347 with B. subtilis 168 (main component drawn) and 0.0616 with S. aureus Newman (main component drawn).
For the compound `CCCCCCCCCC(=O)N[C@H]1[C@H](Oc2c3cc4cc2Oc2ccc(cc2Cl)[C@@H](O[C@@H]2O[C@H](CO)[C@@H](O)[C@H](O)[C@H]2NC(C)=O)[C@@H]2NC(=O)[C@H](NC(=O)[C@@H]4NC(=O)[C@H]4NC(=O)[C@@H](Cc5ccc(c(Cl)c5)O3)NC(=O)[C@H](N)c3ccc(O)c(c3)Oc3cc(O)cc4c3)c3ccc(O)c(c3)-c3c(O[C@H]4O[C@H](CO)[C@@H](O)[C@H](O)[C@@H]4O)cc(O)cc3[C@@H](C(=O)O)NC2=O)O[C@H](CO)[C@@H](O)[C@@H]1O` [Teicoplanin] + Oc1cc(Cl)ccc1Oc1ccc(Cl)cc1Cl [Triclosan], the Bliss interaction score was 0.0695 with S. aureus DSM 20231 (main component drawn), -0.106 in the experiment on S. pneumoniae D39V (main component drawn), 0.0943 in the experiment with B. subtilis 168 (main component drawn) and -0.0356 with S. aureus Newman (main component drawn).
